Patent publication US10081609B2, “Compounds for inducing proliferation and differentiation of cells, and methods of use thereof” (The Broad Institute, Inc., priority 2013, dated 2018)

Assays:
iHeps = experiment: Gene expression profiles of treated iHeps (Luminex); assay type: cell-based, human
Method: Cells were lysed using RLT buffer (Qiagen) or Trizol (Invitrogen) and purified using the Mini-RNeasy kit (Qiagen). Gene expression was determined using Luminex analysis, as previously described. Briefly, total RNA was immobilized on a Qiagen turbo capture 384-well plate, and reverse-transcribed using oligodT priming A biotinylated FlexMap tag sequence unique to each gene of interest and a phosphorylated downstream probe were then added to resulting cDNAs to generate biotinylated FlexMap-tagged amplicons. Universal PCR was then performed for 35 cycles using a biotinylated T7 forward primer and T3 reverse primer in buffer with dNTPs and Taq polymerase. FlexMap microsphere beads conjugated with antitag oligonucleotides were then added and allowed to hybridize. Amplicons were captured by streptavidin-phyoerythrin, and 100 events per bead were analyzed for internal bead color and phyoerythrin reporter fluorescence on a Luminex FlexMap 3D analyzer. Data for replicate loadings, expressed in mean fluorescent intensity of at least 100 beads per sample, were scaled to the human transferrin gene and row-normalized for heat map representation using GeneE open software (Broad Institute).
The ability of compounds of the invention to affect the differentiation and maturation of iHeps was tested. Undifferentiated iPS cells were cultured on Matrigel, supported by primary mouse embryonic fibroblasts. Once confluent, iPS cells were transitioned to differentiation media, with sequential addition of growth factors (Activin A, BMP-4, bFGF, HGF, and OSM) to guide differentiation, first into endoderm, then into hepatic progenitor cells and finally into iHeps. Compound treatment started on day 21 post initiation of differentiation and acted over a period of 9 days. FH1 and FPH2 were used to treat iHeps. FH1 doubled albumin secretion during primary screening (FIG. 4A left) in a dose-responsive manner (FIG. 4A right).
Euclidian clustering analyses groups untreated cells with fetal hepatocytes and treated cells with mature hepatocytes (FIG. 4C left). Of particular interest are ABC transporters, CYP3A4 and GSTP1 expression levels. ABC transporters are known to mature after birth. ABCB11, also known as bile-salt export pump (BSEP), increased ˜3 fold and ˜4 fold in expression levels with FPH2 and FH1 treatment, respectively, compared to untreated iHeps. In contrast, GSTP1 expression, whose levels decrease with maturity, remained low upon FPH2 and FH1 treatment compared to untreated iHeps (FIG. 4C right).

[1] = test system: human primary hepatocytes; experiment: High-throughput liver platform, primary screening: secreted albumin by competitive ELISA; assay type: cell-based
Description: In order to evaluate the phenotype of treated cells, a secondary readout was included to quantify hepatocyte functions via competitive ELISA. This biochemical assay measured the level of secreted albumin as a marker for protein synthesis functions of the cultured hepatocytes (FIG. 1A bottom).
FIG. 1B top summarizes the workflow of the screen. Primary screening was done on human primary hepatocytes, preconditioned for seven days by non-parenchymal cells in the screening platform. Upon stabilization in vitro, cultures were treated with the chemical library for 48 hours. All compounds were tested in duplicates, at a single concentration of 15 μM. This single concentration was selected via a pilot screen of ˜2,000 small molecules. All 12,480 small molecules were initially tested on a single donor of cryopreserved hepatocytes (donor a) in order to eliminate noise from donor-to-donor variability. Following compound treatment, media supernatants were collected for functional analyses via ELISA and cultures were fixed in 4% paraformaldehyde for proliferation analyses via imaging.

PI3KC2 α = PI3KC2 α (Homo sapiens, UniProt O00443); experiment: Kinome analysis (panel of kinases); assay type: biochemical
Method: (§1) Selected compounds of the invention (FPH1 and FPH2; both at 1 μM concentration) were screened against a panel of kinases (FIG. 17).

PI3KCγ = experiment: Kinome analysis (panel of kinases); assay type: biochemical; conditions: 1 μM
Method: as §1

FMS = FMS (Homo sapiens, UniProt P07333); experiment: Kinome analysis (panel of kinases); assay type: biochemical
Chain of FMS (P07333 20-972, species assumed): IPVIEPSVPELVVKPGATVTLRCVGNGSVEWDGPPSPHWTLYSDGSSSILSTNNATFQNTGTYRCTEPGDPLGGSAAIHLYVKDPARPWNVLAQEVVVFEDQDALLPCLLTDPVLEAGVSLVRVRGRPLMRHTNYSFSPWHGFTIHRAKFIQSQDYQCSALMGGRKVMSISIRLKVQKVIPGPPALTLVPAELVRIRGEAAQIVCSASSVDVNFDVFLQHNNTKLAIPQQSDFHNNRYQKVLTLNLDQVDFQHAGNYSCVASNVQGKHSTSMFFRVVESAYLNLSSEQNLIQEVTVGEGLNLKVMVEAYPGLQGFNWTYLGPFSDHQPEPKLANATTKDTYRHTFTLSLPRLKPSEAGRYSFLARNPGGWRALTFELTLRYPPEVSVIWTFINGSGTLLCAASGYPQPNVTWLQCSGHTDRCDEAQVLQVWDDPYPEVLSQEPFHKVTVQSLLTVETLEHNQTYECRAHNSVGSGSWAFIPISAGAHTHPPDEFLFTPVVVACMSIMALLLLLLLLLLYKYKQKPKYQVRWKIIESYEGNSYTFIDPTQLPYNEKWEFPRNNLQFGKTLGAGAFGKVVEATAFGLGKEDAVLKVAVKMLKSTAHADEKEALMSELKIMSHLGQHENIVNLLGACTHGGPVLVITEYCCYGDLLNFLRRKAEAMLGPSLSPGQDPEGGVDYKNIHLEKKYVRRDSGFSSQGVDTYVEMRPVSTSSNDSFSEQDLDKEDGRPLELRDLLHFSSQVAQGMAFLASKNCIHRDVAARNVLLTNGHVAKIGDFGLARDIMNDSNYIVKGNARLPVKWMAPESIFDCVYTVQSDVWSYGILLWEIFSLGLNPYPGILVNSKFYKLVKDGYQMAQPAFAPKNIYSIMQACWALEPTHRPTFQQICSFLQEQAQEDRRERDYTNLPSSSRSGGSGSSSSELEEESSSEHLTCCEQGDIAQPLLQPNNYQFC
Method: as §1

eEF-2K = eEF-2K (Homo sapiens, UniProt O00418); experiment: Kinome analysis (panel of kinases); assay type: biochemical
Method: as §1

CDK5 = CDK5 (Homo sapiens, UniProt Q00535); experiment: Kinome analysis (panel of kinases); assay type: biochemical
Chain of CDK5 (Q00535 whole entry, species assumed): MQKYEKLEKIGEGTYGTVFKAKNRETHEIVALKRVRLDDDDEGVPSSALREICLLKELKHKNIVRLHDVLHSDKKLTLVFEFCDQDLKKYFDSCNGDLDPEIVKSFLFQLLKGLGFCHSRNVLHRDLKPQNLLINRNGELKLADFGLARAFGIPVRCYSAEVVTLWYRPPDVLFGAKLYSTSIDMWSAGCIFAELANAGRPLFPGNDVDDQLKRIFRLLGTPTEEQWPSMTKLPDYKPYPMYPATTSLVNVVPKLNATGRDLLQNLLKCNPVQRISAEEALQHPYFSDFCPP
Chain of CDK5 (Q15078 whole entry partner, species assumed): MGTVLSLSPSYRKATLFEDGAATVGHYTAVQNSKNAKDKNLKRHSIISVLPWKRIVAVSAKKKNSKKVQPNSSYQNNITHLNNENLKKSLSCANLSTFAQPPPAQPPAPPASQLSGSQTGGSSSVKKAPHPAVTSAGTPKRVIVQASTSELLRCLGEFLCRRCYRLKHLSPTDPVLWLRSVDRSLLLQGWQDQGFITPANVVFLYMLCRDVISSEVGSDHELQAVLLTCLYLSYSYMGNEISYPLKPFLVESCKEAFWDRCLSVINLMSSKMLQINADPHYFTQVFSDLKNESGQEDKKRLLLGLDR
Method: as §1

PDGFRβ = PDGFRβ (Homo sapiens, UniProt P09619); experiment: Kinome analysis (panel of kinases); assay type: biochemical
Method: as §1

DAPK1 = DAPK1 (Homo sapiens, UniProt P53355); experiment: Kinome analysis (panel of kinases); assay type: biochemical
Method: as §1

ALK = ALK (Homo sapiens, UniProt Q9UM73); experiment: Kinome analysis (panel of kinases); assay type: biochemical
Chain of ALK (Q9UM73 19-1620, species assumed): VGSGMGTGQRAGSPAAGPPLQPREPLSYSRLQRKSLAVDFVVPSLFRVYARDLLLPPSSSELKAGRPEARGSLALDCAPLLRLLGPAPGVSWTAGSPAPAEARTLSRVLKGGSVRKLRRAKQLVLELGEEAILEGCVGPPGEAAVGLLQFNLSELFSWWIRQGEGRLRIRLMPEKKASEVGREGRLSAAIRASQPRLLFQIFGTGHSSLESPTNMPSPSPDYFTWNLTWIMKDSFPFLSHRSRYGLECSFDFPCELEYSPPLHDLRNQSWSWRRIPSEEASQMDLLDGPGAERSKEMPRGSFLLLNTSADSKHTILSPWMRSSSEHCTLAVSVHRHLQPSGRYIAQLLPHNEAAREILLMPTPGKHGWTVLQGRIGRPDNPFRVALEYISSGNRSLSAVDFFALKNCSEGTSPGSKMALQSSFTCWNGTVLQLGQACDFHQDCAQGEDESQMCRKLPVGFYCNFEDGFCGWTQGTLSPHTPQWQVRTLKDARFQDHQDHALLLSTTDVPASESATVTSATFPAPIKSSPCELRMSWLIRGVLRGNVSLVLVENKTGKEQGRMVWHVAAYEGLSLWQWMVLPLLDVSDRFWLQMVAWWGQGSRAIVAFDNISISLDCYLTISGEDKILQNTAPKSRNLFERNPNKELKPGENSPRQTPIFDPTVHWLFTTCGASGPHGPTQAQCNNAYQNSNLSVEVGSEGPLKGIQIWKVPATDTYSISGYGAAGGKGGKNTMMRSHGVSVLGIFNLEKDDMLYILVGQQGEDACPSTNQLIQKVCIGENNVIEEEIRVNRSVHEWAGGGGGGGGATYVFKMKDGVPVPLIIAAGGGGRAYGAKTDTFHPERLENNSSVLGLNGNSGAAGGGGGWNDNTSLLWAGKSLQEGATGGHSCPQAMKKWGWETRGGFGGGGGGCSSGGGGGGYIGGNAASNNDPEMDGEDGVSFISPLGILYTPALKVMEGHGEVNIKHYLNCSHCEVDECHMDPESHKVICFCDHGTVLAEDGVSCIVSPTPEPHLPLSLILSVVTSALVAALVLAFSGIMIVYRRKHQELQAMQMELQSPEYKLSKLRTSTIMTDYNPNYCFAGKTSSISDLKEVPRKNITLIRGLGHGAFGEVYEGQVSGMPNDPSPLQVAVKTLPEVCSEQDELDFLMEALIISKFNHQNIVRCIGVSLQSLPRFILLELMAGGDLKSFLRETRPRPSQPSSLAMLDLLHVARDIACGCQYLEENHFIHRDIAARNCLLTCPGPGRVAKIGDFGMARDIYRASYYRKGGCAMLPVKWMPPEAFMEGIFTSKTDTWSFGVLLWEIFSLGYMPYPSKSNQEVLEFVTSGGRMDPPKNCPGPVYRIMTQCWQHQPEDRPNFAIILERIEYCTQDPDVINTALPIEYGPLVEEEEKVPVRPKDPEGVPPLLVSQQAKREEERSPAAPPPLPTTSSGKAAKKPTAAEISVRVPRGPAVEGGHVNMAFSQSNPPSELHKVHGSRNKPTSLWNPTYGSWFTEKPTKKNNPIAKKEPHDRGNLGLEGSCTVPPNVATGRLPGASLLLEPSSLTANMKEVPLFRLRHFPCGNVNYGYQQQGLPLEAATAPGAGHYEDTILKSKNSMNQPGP
Method: as §1

MAPKAPKV (PRAK) = MAPKAPKV (PRAK) (Homo sapiens, UniProt Q8IW41); experiment: Kinome analysis (panel of kinases); assay type: biochemical; conditions: read-out: MAPKAPKV (PRAK) inhibition
Method: as §1

RSK2 = RSK2 (Homo sapiens, UniProt P51812); experiment: Kinome analysis (panel of kinases); assay type: biochemical
Chain of RSK2 (P51812 whole entry, species assumed): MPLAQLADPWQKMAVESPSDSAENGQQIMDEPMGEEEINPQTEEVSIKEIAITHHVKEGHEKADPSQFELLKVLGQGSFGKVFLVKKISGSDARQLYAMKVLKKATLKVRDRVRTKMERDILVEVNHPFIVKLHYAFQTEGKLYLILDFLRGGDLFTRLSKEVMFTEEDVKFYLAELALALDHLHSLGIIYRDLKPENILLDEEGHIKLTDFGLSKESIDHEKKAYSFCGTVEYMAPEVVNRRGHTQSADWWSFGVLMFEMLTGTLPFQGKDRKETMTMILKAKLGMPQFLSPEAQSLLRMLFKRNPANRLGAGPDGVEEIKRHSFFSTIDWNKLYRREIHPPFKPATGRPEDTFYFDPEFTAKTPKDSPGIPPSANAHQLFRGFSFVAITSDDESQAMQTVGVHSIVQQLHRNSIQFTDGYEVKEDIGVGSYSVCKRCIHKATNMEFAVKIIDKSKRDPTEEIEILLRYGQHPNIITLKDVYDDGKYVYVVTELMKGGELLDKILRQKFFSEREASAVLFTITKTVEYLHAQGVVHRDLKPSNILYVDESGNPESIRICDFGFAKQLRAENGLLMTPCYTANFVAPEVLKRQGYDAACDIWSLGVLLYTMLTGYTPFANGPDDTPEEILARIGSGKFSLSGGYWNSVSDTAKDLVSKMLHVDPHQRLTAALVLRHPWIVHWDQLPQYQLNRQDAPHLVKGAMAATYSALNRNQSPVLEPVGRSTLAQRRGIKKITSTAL
Method: as §1

CLK4 = CLK4 (Homo sapiens, UniProt Q9HAZ1); experiment: Kinome analysis (panel of kinases); assay type: biochemical
Method: as §1

CK1 γ2 = CK1 γ2 (Homo sapiens, UniProt P78368); experiment: Kinome analysis (panel of kinases); assay type: biochemical
Chain of CK1 γ2 (P78368 whole entry): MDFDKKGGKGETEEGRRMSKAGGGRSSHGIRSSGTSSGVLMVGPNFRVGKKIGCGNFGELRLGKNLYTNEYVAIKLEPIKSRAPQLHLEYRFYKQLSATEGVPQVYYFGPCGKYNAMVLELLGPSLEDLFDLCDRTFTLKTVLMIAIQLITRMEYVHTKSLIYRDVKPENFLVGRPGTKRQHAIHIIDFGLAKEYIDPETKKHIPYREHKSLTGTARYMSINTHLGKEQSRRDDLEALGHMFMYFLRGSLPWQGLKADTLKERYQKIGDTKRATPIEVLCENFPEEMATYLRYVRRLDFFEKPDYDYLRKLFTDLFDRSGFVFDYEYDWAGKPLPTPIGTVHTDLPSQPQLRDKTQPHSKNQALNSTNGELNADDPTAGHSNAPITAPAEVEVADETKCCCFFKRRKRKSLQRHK
Method: as §1

Ron = Ron (Homo sapiens, UniProt Q04912); experiment: Kinome analysis (panel of kinases); assay type: biochemical
Method: as §1

CaMK1 δ = CaMK1 δ (Homo sapiens, UniProt Q8IU85); experiment: Kinome analysis (panel of kinases); assay type: biochemical
Method: as §1

CLK1 = CLK1 (Homo sapiens, UniProt P49759); experiment: Kinome analysis (panel of kinases); assay type: biochemical
Method: as §1

NEK9 = NEK9 (Homo sapiens, UniProt Q8TD19); experiment: Kinome analysis (panel of kinases); assay type: biochemical
Method: as §1

NEK2 = NEK2 (Homo sapiens, UniProt P51955); experiment: Kinome analysis (panel of kinases); assay type: biochemical
Method: as §1

EphB4 = EphB4 (Homo sapiens, UniProt P54760); experiment: Kinome analysis (panel of kinases); assay type: biochemical
Method: as §1

RSK3 = RSK3 (Homo sapiens, UniProt Q15349); experiment: Kinome analysis (panel of kinases); assay type: biochemical
Method: as §1

FAK = FAK (Homo sapiens, UniProt Q05397); experiment: Kinome analysis (panel of kinases); assay type: biochemical
Method: as §1

RSK4 = RSK4 (Homo sapiens, UniProt Q9UK32); experiment: Kinome analysis (panel of kinases); assay type: biochemical
Chain of RSK4 (Q9UK32 whole entry, species assumed): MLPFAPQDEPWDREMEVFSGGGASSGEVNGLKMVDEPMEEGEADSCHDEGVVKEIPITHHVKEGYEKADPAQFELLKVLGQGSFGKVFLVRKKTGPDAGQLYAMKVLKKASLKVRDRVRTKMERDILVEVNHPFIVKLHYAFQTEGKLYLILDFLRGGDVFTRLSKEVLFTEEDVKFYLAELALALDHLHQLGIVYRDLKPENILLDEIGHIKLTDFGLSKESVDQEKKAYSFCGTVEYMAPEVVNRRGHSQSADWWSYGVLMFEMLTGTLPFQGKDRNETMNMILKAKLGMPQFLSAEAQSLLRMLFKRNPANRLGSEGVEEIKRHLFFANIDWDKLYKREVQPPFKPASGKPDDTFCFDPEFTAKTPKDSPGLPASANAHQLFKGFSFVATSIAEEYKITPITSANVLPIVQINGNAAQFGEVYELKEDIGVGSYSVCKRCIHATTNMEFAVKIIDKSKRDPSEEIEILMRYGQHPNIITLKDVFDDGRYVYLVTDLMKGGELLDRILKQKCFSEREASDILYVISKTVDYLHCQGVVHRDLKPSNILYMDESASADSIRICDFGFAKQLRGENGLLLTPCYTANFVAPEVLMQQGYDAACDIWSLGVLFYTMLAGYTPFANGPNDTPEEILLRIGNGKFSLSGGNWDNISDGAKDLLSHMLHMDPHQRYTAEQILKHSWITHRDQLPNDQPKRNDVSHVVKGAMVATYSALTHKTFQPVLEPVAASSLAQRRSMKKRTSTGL
Method: as §1

inhibition at 1 µM (PI3KC2 α): 6.7 to 18.4%
inhibition at 1 µM (FMS): 28%
remaining activity at 1 µM (FMS): 72%
inhibition at 1 µM (eEF-2K): 6.7 to 18.4%
inhibition at 1 µM (CDK5): 6.7 to 18.4%
inhibition at 1 µM (PDGFRβ): 6.7 to 18.4%
inhibition at 1 µM (DAPK1): 6.7 to 18.4%
inhibition at 1 µM (ALK): 23%
remaining activity at 1 µM (ALK): 77%
inhibition at 1 µM (MAPKAPKV (PRAK)): 6.7 to 18.4%
inhibition at 1 µM (RSK2): 6.7 to 18.4%
inhibition at 1 µM (CLK4): 6.7 to 18.4%
inhibition at 1 µM (CK1 γ2): 6.7 to 18.4%
inhibition at 1 µM (Ron): 6.7 to 18.4%
inhibition at 1 µM (CaMK1 δ): 6.7 to 18.4%
inhibition at 1 µM (CLK1): 6.7 to 18.4%
inhibition at 1 µM (NEK2): 6.7 to 18.4%
inhibition at 1 µM (EphB4): 18.4 to 30%
inhibition at 1 µM (RSK3): 6.7 to 18.4%
inhibition at 1 µM (FAK): 6.7 to 18.4%
inhibition at 1 µM (RSK4): 6.7 to 18.4%
Compound: Cc1ccc(Cl)cc1N(CC(=O)Nc1c(F)cccc1F)S(C)(=O)=O [FPH2, 2-(N-(5-chloro-2-methylphenyl)methylsulfonamido)-N-(2,6-difluorophenyl)acetamide]
ABCB11 (BSEP) expression level increase compared to untreated iHeps (iHeps): ~3 fold
GSTP1 expression compared to untreated iHeps (iHeps): remained low
albumin secretion during primary screening [1]: similar, but weaker effects
PI3KCγ inhibition (PI3KCγ): 6.7-18.4%
inhibition at 1 µM (NEK9): 6.7 to 18.4%
